Test results: ChEMBL document CHEMBL3751693, “Synthesis, antimicrobial evaluation and molecular modeling of 5-hydroxyisoquinolinium salt series; the effect of the hydroxyl moiety” (Bioorg Med Chem, 2016)

Tests used:
Pseudomonas aeruginosa [1] = test: Antimicrobial activity against clinical isolate Pseudomonas aeruginosa CCM 1961 after 72 hrs; format: functional; settings: CCM 1961, 72 h
Pichia kudriavzevii [2] = test: Antimicrobial activity against Candida krusei E28 after 48 hrs by spectrophotometry; format: functional; settings: E28, 48 h
Enterococcus sp. [3] = test: Antimicrobial activity against clinical isolate Enterococcus sp. J 1436508 after 24 hrs; format: functional; settings: J 1436508, 24 h
[4] = Cytotoxicity against CHOK1 cells after 24 hrs by MTT assay; format: cell-based; settings: Cricetulus griseus, CHO-K1, 24 h
Staphylococcus aureus [5] = test: Antimicrobial activity against clinical isolate methicillin-resistant Staphylococcus aureus H 599608 after 24 hrs; format: functional; settings: H 599608, 24 h
Candida albicans [6] = test: Antimicrobial activity against Candida albicans ATCC 44859 after 24 hrs by spectrophotometry; format: functional; settings: ATCC 44859, 24 h
Pseudomonas aeruginosa [7] = test: Antimicrobial activity against clinical isolate Pseudomonas aeruginosa CCM 1961 after 120 hrs; format: functional; settings: CCM 1961, 120 h
Staphylococcus aureus [8] = test: Antimicrobial activity against clinical isolate methicillin-resistant Staphylococcus aureus H 599608 after 48 hrs; format: functional; settings: H 599608, 48 h
Candida tropicalis [9] = test: Antimicrobial activity against Candida tropicalis 156 after 48 hrs by spectrophotometry; format: functional; settings: Candida tropicalis, 156, 48 h
Lichtheimia corymbifera [10] = test: Antimicrobial activity against Absidia corymbifera 272 after 24 hrs by spectrophotometry; format: functional; settings: Lichtheimia corymbifera, 272, 24 h
Aspergillus fumigatus [11] = test: Antimicrobial activity against Aspergillus fumigatus 231 after 48 hrs by spectrophotometry; format: functional; settings: Aspergillus fumigatus, 231, 48 h
Pichia kudriavzevii [12] = test: Antimicrobial activity against Candida krusei E28 after 24 hrs by spectrophotometry; format: functional; settings: E28, 24 h
Candida albicans [13] = test: Antimicrobial activity against Candida albicans ATCC 44859 after 48 hrs by spectrophotometry; format: functional; settings: ATCC 44859, 48 h
Klebsiella pneumoniae [14] = test: Antimicrobial activity against clinical isolate ESBL-Klebsiella pneumoniae J 1436808 after 48 hrs; format: functional; settings: J 1436808, 48 h
Klebsiella pneumoniae [15] = test: Antimicrobial activity against clinical isolate Klebsiella pneumoniae D 1175008 after 48 hrs; format: functional; settings: D 1175008, 48 h
Staphylococcus aureus [16] = test: Antimicrobial activity against clinical isolate Staphylococcus aureus CCM 451608 after 24 hrs; format: functional; settings: CCM 451608, 24 h
Klebsiella pneumoniae [17] = test: Antimicrobial activity against clinical isolate Klebsiella pneumoniae D 1175008 after 24 hrs; format: functional; settings: D 1175008, 24 h
Staphylococcus aureus [18] = test: Antimicrobial activity against clinical isolate Staphylococcus aureus CCM 451608 after 48 hrs; format: functional; settings: CCM 451608, 48 h
Trichosporon asahii [19] = test: Antimicrobial activity against Trichosporon asahii 1188 after 24 hrs by spectrophotometry; format: functional; settings: Trichosporon asahii, 1188, 24 h
Enterococcus sp. [20] = test: Antimicrobial activity against clinical isolate Enterococcus sp. J 1436508 after 48 hrs; format: functional; settings: J 1436508, 48 h
Escherichia coli [21] = test: Antimicrobial activity against clinical isolate Escherichia coli CCM 4517 after 48 hrs; format: functional; settings: CCM 4517, 48 h
Trichosporon asahii [22] = test: Antimicrobial activity against Trichosporon asahii 1188 after 48 hrs by spectrophotometry; format: functional; settings: Trichosporon asahii, 1188, 48 h
Klebsiella pneumoniae [23] = test: Antimicrobial activity against clinical isolate ESBL-Klebsiella pneumoniae J 1436808 after 24 hrs; format: functional; settings: J 1436808, 24 h
Nakaseomyces glabratus [24] = test: Antimicrobial activity against Candida glabrata 20/I after 48 hrs by spectrophotometry; format: functional
[25] = test system: Staphylococcus epidermidis; test: Antimicrobial activity against clinical isolate Staphylococcus epidermidis H 696608 after 48 hrs; format: functional; settings: H 696608, 48 h
Escherichia coli [26] = test: Antimicrobial activity against clinical isolate Escherichia coli CCM 4517 after 24 hrs; format: functional; settings: CCM 4517, 24 h
Nakaseomyces glabratus [27] = test: Antimicrobial activity against Candida glabrata 20/I after 24 hrs by spectrophotometry; format: functional
Candida tropicalis [28] = test: Antimicrobial activity against Candida tropicalis 156 after 24 hrs by spectrophotometry; format: functional; settings: Candida tropicalis, 156, 24 h
Lichtheimia corymbifera [29] = test: Antimicrobial activity against Absidia corymbifera 272 after 48 hrs by spectrophotometry; format: functional; settings: Lichtheimia corymbifera, 272, 48 h
Aspergillus fumigatus [30] = test: Antimicrobial activity against Aspergillus fumigatus 231 after 24 hrs by spectrophotometry; format: functional; settings: Aspergillus fumigatus, 231, 24 h
[31] = test system: Trichophyton mentagrophytes; test: Antimicrobial activity against Trichophyton mentagrophytes 445 after 72 hrs by spectrophotometry; format: functional; settings: Trichophyton mentagrophytes, 445, 72 h
[32] = test system: Trichophyton mentagrophytes; test: Antimicrobial activity against Trichophyton mentagrophytes 445 after 120 hrs by spectrophotometry; format: functional; settings: Trichophyton mentagrophytes, 445, 120 h
[33] = test system: Staphylococcus epidermidis; test: Antimicrobial activity against clinical isolate Staphylococcus epidermidis H 696608 after 24 hrs; format: functional; settings: H 696608, 24 h

`CCCCCCCCCCCCCCCC[n+]1ccc2ccccc2c1` showed an MIC (Pseudomonas aeruginosa [1]) of 125 µM, an MFC (Pichia kudriavzevii [2]) of 2 µM and an MIC (Pichia kudriavzevii [2]) of 2 µM. The MIC (Enterococcus sp. [3]) was 1 µM, the IC50 [4] was 7 µM and the MIC (Staphylococcus aureus [5]) was 1 µM. It also gave an MIC (Candida albicans [6]) of 2 µM, an MBC (Pseudomonas aeruginosa [7]) of 125 µM and an MIC (Pseudomonas aeruginosa [7]) of 125 µM. The MBC (Staphylococcus aureus [8]) was 2 µM, the MIC (Staphylococcus aureus [8]) was 1 µM and the MFC (Candida tropicalis [9]) was 2 µM. For the same molecule, the MIC (Candida tropicalis [9]) was 2 µM, the MIC (Lichtheimia corymbifera [10]) was 16 µM and the MFC (Aspergillus fumigatus [11]) was 3.9 µM. For the same molecule, the MIC (Aspergillus fumigatus [11]) was 3.9 µM, the MIC (Pichia kudriavzevii [12]) was 2 µM and the MFC (Candida albicans [13]) was 2 µM. The MIC (Candida albicans [13]) was 2 µM, the MBC (Klebsiella pneumoniae [14]) was 31 µM and the MIC (Klebsiella pneumoniae [14]) was 7.8 µM. The MBC (Klebsiella pneumoniae [15]) was 7.8 µM, the MIC (Klebsiella pneumoniae [15]) was 3.9 µM and the MIC (Staphylococcus aureus [16]) was 1 µM. For the same molecule, the MIC (Klebsiella pneumoniae [17]) was 3.9 µM, the MBC (Staphylococcus aureus [18]) was 2 µM and the MIC (Staphylococcus aureus [18]) was 1 µM. The MIC (Trichosporon asahii [19]) was 3.9 µM, the MBC (Enterococcus sp. [20]) was 3.9 µM and the MIC (Enterococcus sp. [20]) was 1 µM. It also gave an MBC (Escherichia coli [21]) of 3.9 µM, an MIC (Escherichia coli [21]) of 3.9 µM and an MFC (Trichosporon asahii [22]) of 3.9 µM. It also gave an MIC (Trichosporon asahii [22]) of 3.9 µM, an MIC (Klebsiella pneumoniae [23]) of 7.8 µM and an MFC (Nakaseomyces glabratus [24]) of 2 µM. For the same molecule, the MIC (Nakaseomyces glabratus [24]) was 2 µM, the MBC [25] was 2 µM and the MIC [25] was 0.5 µM. For the same molecule, the MIC (Escherichia coli [26]) was 3.9 µM, the MIC (Nakaseomyces glabratus [27]) was 2 µM and the MIC (Candida tropicalis [28]) was 2 µM. It also gave an MFC (Lichtheimia corymbifera [29]) of 125 µM, an MIC (Lichtheimia corymbifera [29]) of 16 µM and an MIC (Aspergillus fumigatus [30]) of 3.9 µM. For the same molecule, the MIC [31] was 2 µM, the MFC [32] was 7.8 µM and the MIC [32] was 2 µM. For the same molecule, the MIC [33] was 0.5 µM.

For `CCCCCCCCCCCCCCCCCC[n+]1ccc2ccccc2c1`, the MIC (Pseudomonas aeruginosa [1]) was 125 µM, the MFC (Pichia kudriavzevii [2]) was 2 µM and the MIC (Pichia kudriavzevii [2]) was 2 µM. The MIC (Enterococcus sp. [3]) was 2 µM, the IC50 [4] was 6 µM and the MIC (Staphylococcus aureus [5]) was 0.5 µM. For the same molecule, the MIC (Candida albicans [6]) was 2 µM, the MBC (Pseudomonas aeruginosa [7]) was 250 µM and the MIC (Pseudomonas aeruginosa [7]) was 125 µM. The MBC (Staphylococcus aureus [8]) was 2 µM, the MIC (Staphylococcus aureus [8]) was 0.5 µM and the MFC (Candida tropicalis [9]) was 2 µM. The MIC (Candida tropicalis [9]) was 2 µM, the MIC (Lichtheimia corymbifera [10]) was 7.8 µM and the MFC (Aspergillus fumigatus [11]) was 63 µM. It also gave an MIC (Aspergillus fumigatus [11]) of 63 µM, an MIC (Pichia kudriavzevii [12]) of 2 µM and an MFC (Candida albicans [13]) of 2 µM. It also gave an MIC (Candida albicans [13]) of 2 µM, an MBC (Klebsiella pneumoniae [14]) of 250 µM and an MIC (Klebsiella pneumoniae [14]) of 63 µM. For the same molecule, the MBC (Klebsiella pneumoniae [15]) was 63 µM, the MIC (Klebsiella pneumoniae [15]) was 63 µM and the MIC (Staphylococcus aureus [16]) was 0.5 µM. It also gave an MIC (Klebsiella pneumoniae [17]) of 63 µM, an MBC (Staphylococcus aureus [18]) of 2 µM and an MIC (Staphylococcus aureus [18]) of 0.5 µM. It also gave an MIC (Trichosporon asahii [19]) of 2 µM, an MBC (Enterococcus sp. [20]) of 2 µM and an MIC (Enterococcus sp. [20]) of 2 µM. For the same molecule, the MBC (Escherichia coli [21]) was 31 µM, the MIC (Escherichia coli [21]) was 31 µM and the MFC (Trichosporon asahii [22]) was 2 µM. For the same molecule, the MIC (Trichosporon asahii [22]) was 2 µM, the MIC (Klebsiella pneumoniae [23]) was 63 µM and the MFC (Nakaseomyces glabratus [24]) was 2 µM. The MIC (Nakaseomyces glabratus [24]) was 1 µM, the MBC [25] was 2 µM and the MIC [25] was 0.5 µM. The MIC (Escherichia coli [26]) was 31 µM, the MIC (Nakaseomyces glabratus [27]) was 1 µM and the MIC (Candida tropicalis [28]) was 2 µM. For the same molecule, the MFC (Lichtheimia corymbifera [29]) was 63 µM, the MIC (Lichtheimia corymbifera [29]) was 7.8 µM and the MIC (Aspergillus fumigatus [30]) was 63 µM. It also gave an MIC [31] of 2 µM, an MFC [32] of 31 µM and an MIC [32] of 2 µM. For the same molecule, the MIC [33] was 0.5 µM.

For `CCCCCCCCCCCCCCCCCC[n+]1ccc2c(O)cccc2c1`, the IC50 [4] was 7 µM.
